Bounds are passed on as bounds.

One may read the IC50 as the concentration at which inhibition is half-maximal.

This experiment addresses T1, G1 APOL1 (Homo sapiens, UniProt O14791, I384M/S342G).
T1 construct: expressed in transfected cells
T1 sequence (O14791 28-398 S342G/I384M): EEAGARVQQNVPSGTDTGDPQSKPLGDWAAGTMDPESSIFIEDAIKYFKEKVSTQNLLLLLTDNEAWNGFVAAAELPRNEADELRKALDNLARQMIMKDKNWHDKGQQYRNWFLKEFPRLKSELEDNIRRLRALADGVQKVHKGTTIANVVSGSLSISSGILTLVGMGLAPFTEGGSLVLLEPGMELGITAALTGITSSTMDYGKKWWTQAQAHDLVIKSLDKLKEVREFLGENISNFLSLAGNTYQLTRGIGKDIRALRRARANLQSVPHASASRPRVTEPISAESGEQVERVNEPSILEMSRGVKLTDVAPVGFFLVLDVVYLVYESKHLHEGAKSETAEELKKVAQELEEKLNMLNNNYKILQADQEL
The experiment is described as follows: Acute APOL1 Thallium Assay with inducible stable clones of HEK 293 cells. In kind it is cell-based. To be noted: HEK T-Rex tetracycline-inducible cells expressing G1 APOL1 (clone G1 DC3.25); inhibition of thallium flux rate. The source says: Acute APOL1 Thallium Assay with Inducible Stable Clones of HEK 293 Cells
Apolipoprotein L1 (APOL1) proteins form potassium-permeable cation pores in the plasma membrane. APOL1 risk variants (G1 and G2) induce greater potassium flux than G0 in HEK293 cells. This assay exploits the permeability of thallium (T1+) through ligand-gated potassium channels. The dye produces a bright fluorescent signal upon binding to T1+ conducted through potassium channels. The intensity of the T1+ signal is proportional to the number of potassium channels in the open state. Therefore, it provides a functional indication of the potassium channel activities. During the initial dye-loading step, the T1+ indicator dye as an acetoxymethyl (AM) ester enters the cells through passive diffusion. Cytoplasm esterases cleave the AM ester and relieve its active thallium-sensitive form. The cells are then stimulated with T1+. The increase of fluorescence in the assay represents the influx of T1+ into the cell specifically through the potassium channel (i.e. through APOL1 pores), providing a functional measurement of potassium channel/pore activity. The Thallium assay is conducted with cells expressing G1 APOL1.
APOL1 Cell Line (HEK T-Rex Stable Inducible Cell Line) • HEK T-Rex System • Tetracycline (Tet) inducible mammalian expression system. • Stably express the Tet repressor to regulate transcription. • Expression under the full-length CMV promoter. • APOL1 stable inducible cell line Clone used: G1 DC3.25
Tissue Culture Media • Cell Culture Medium • DMEM +10% FBS +P/S +5 μg/mL blasticidin+1 μg/mL puromycin. • 500 mL DMEM +55 mL FBS +5 mL P/S +280 μL blasticidin S HCl (10 mg/mL)+56 μL puromycin (10 mg/mL). • Cell Assay Medium • DMEM with 2% FBS+pen strep.
Instruments and Equipment • Nuaire cell culture hood, Cat. No. 540-600 • 37° C./5% CO2 incubator link to robotic arm, Liconic: STX110 • Molecular Devices FLIPR^Tetra High throughput cellular screening system, Cat. No. FT0324, Molecular Devices • ThermoFisher MultiDrop 384, Cat. No. 5840300 • Biotek Microfill, Cat. No. ASF1000A-4145 • BioRad TC10 cell counter, Cat. No. 145-0010 Assay Procedures
Cells Scaled Up from Frozen Vials • APOL1 G1 3.25 (HEK293 T-Rex) frozen vials: 5 million cells per vial • Step 1, Day 1: Defrost frozen vial into T-225. • Step 2, Day 5: (when 85% confluent): Split one T-225 at 3×10^6 cells per flask. • Step 3, Day 8: Splits cells to set up for the assay plates as described below.
T-Rex APOL1 HEK cells are split twice per week to keep the confluence state below 85% of the culture flask surface area. Cells can be kept until passage 25. • Cell Culture Medium • DMEM high glucose +10% FBS, +P/S, +5 μg/mL blasticidin, +1 μg/mL puromycin. • 500 mL DMEM, +55 mL FBS, +5 mL P/S, +280 μL blasicidin 10 mg/mL, +56 μL Puromycin 10 mg/mL. • Assay Media • Opti-MEM reduced serum medium from Invitrogen.
Preparation of Cell Assay Plates • Culture medium is removed from the x cm^2 T-flask by aspiration. • The cell monolayer is rinsed with PBS 1× at room temperature. PBS is removed by aspiration. • Cells are trypsinized using Trypsin. • The flasks are incubated at room temperature for 2-3 minutes. • Complete DMEM medium is then added. Cell suspension is then transferred to a 50 mL Falcon polypropylene tube. • Cells are then counted using a Biorad TC10 cell counter and the required amount of cells are centrifuged at 1200 RPM for 5 minutes. Required amount is 1.3×10^6 cells/mL APOL1 T-Rex HEK cells. • The pellet is suspended in the assay medium. • Using the MultiDrop, add 20 μL to each well (corresponds to 26000 cells total per well) of a 384-well black, transparent, flat bottom Poly-D coated plate. • Tetracycline as prepared in the following section is added to the cells before plating to induce APOL1 expression. • Plates are left at room temperature for 20 to 30 minutes before incubation at 37° C. and 5% CO2. […]
`O=C(CCc1c(-c2ccc(F)cc2)[nH]c2c(Cl)cc(F)cc12)N[C@H]1CCNC1=O` [Compound 34] yielded an IC50 of less than 250 nM.
`Cc1cc(F)ccc1-c1[nH]c2ccccc2c1CCC(=O)N[C@@H]1C(=O)NC[C@H]1O` [Compound 119] had an IC50 of 250 to 1000 nM.
Compound `O=C(CCc1c(-c2ccc(OC(F)F)cc2)[nH]c2ccccc12)N[C@@H]1C(=O)NC[C@H]1O` [Compound 117] had an IC50 of less than 250 nM.
`Cc1cc(F)cc2c(CCC(=O)N[C@H]3CCNC3=O)c(-c3ccc(F)cc3)[nH]c12` [Compound 38] yielded an IC50 of less than 250 nM.
The value for `O=C(CCc1c(-c2ccc(F)cc2)[nH]c2ccccc12)N[C@H]1C(=O)NC[C@@H]1O` [Compound 134, 3-[2-(4-fluorophenyl)-1H-indol-3-yl]-N-[(3R,4S)-4-hydroxy-2-oxo-pyrrolidin-3-yl]propanamide] was more than 1000 nM; that for `Cc1c(F)ccc2c(CCC(=O)N[C@@H]3C(=O)NC[C@H]3O)c(-c3ccc(F)cc3)[nH]c12` [Compound 83] was less than 250 nM.
Under `COc1cccc2c(CCC(=O)N[C@H]3CCNC3=O)c(-c3ccc(F)cc3)[nH]c12` [Compound 77] stands more than 1000 nM.
Under `CC(C)c1cccc2c(CCC(=O)N[C@@H]3C(=O)NC[C@H]3O)c(-c3ccccc3)[nH]c12` [Compound 68] stands 250 to 1000 nM; under `O=C(CCc1c(-c2ccc(F)cc2)[nH]c2ccccc12)N[C@@H]1C(=O)NC[C@@H]1O` [Compound 135, 3-[2-(4-fluorophenyl)-1H-indol-3-yl]-N-[(3S,4S)-4-hydroxy-2-oxo-pyrrolidin-3-yl]propanamide], more than 1000 nM; under `C[C@H]1CNC(=O)[C@H]1NC(=O)CCc1c(-c2ccc(F)cc2)[nH]c2c(F)cc(F)cc12` [Compound 11], more than 1000 nM.
Turning to `O=C(N[C@@H]1C(=O)NC[C@H]1O)[C@H](O)Cc1c(-c2ccc(F)cc2)[nH]c2c(F)cc(F)cc12` [Compound 92, (2R)-3-[5,7-difluoro-2-(4-fluorophenyl)-1H-indol-3-yl]-2-hydroxy-N-[(3S,4R)-4-hydroxy-2-oxo-pyrrolidin-3-yl]propanamide], the IC50 is more than 1000 nM.
In the case of `O=C(CCc1c(-c2ccc(F)cc2)[nH]c2c(F)cc(Cl)cc12)N[C@H]1CCNC1=O` [Compound 32], the IC50 was less than 250 nM.
For the compound `O=C(CCc1c(-c2ccc(F)cc2)[nH]c2c(C(F)F)cc(F)cc12)N[C@@H]1C(=O)NC[C@H]1O` [Compound 100, 3-[7-(difluoromethyl)-5-fluoro-2-(4-fluorophenyl)-1H-indol-3-yl]-N-[(3S,4R)-4-hydroxy-2-oxo-pyrrolidin-3-yl]propanamide], the IC50 is less than 250 nM.
In turn, `Cc1ccc(-c2[nH]c3c(F)cc(F)cc3c2CCC(=O)N[C@@H]2C(=O)NC[C@H]2O)cc1` [Compound 22] gave an IC50 of less than 250 nM.
Regarding `O=C(CCc1c(-c2ccc(F)cc2)[nH]c2cc(F)c(F)cc12)N[C@@H]1C(=O)NC[C@H]1O` [Compound 81], the IC50 was less than 250 nM.
As for `COc1ccc2[nH]c(-c3ccc(F)cc3)c(CCC(=O)N[C@H]3CCNC3=O)c2c1` [Compound 56, 3-[2-(4-fluorophenyl)-5-methoxy-1H-indol-3-yl]-N-[(3S)-2-oxopyrrolidin-3-yl]propanamide], the IC50 was more than 1000 nM.
The value for `O=C(CCc1c(-c2ccc(Cl)cc2)[nH]c2c(Cl)cccc12)N[C@@H]1C(=O)NC[C@H]1O` [Compound 113, 3-[7-chloro-2-(4-chlorophenyl)-1H-indol-3-yl]-N-[(3S,4R)-4-hydroxy-2-oxo-pyrrolidin-3-yl]propanamide] was less than 250 nM; that for `O=C(CCc1c(-c2ccc(F)cc2)[nH]c2c(F)cc(F)cc12)NC1CC2(CC2)NC1=O` (stereo not shown) [Compound 17] was more than 1000 nM.
The value for `O=C(CCc1c(-c2ccc(F)cc2)[nH]c2c(F)cc(F)cc12)N[C@H]1C(=O)NC[C@@H]1O` [Compound 12] was 250 to 1000 nM; that for `O=C(CCc1c(-c2ccc(F)cc2)[nH]c2c(F)cc(Cl)cc12)N[C@@H]1CCNC1=O` [Compound 33] was 250 to 1000 nM.
Under `Cc1ccc(-c2[nH]c3c(F)cc(F)cc3c2CCC(=O)N[C@H]2CCNC2=O)cc1` [Compound 23] stands less than 250 nM.
The compound `C=C(C)c1cccc2c(CCC(=O)N[C@@H]3C(=O)NC[C@H]3O)c(-c3ccccc3)[nH]c12` [Compound 67] showed an IC50 of 250 to 1000 nM.
In turn, `Cc1cc(F)cc2c(CCC(=O)N[C@H]3CCNC3=O)c(-c3ccc(F)cc3)[nH]c12` [Compound 39] registered an IC50 of 250 to 1000 nM.
Under `Cc1cccc2c(CCC(=O)N[C@@H]3C(=O)NC[C@H]3O)c(-c3ccccc3)[nH]c12` [Compound 69] stands less than 250 nM; under `C=Cc1cccc2c(CCC(=O)N[C@@H]3C(=O)NC[C@H]3O)c(-c3ccccc3)[nH]c12` [Compound 62, N-[(3S,4R)-4-hydroxy-2-oxo-pyrrolidin-3-yl]-3-(2-phenyl-7-vinyl-1H-indol-3-yl)propanamide], less than 250 nM; under `O=C(CCc1c(-c2ccc(F)cc2)[nH]c2c(F)cc(F)cc12)N[C@H]1C[C@@H](CF)NC1=O` [Compound 9], more than 1000 nM.
In the case of `O=C(CCc1c(-c2ccccc2)[nH]c2c(C3CC3)cccc12)N[C@@H]1C(=O)NC[C@H]1O` [Compound 63], the IC50 was less than 250 nM.
Consider `O=C(CCc1c(-c2ccccc2)[nH]c2c(Cl)cc(F)cc12)N[C@@H]1C(=O)NC[C@H]1O` [Compound 35], for which the IC50 was less than 250 nM.
